Source: patent publication US9556114B2, “Fluorinated 2-amino-4-(benzylamino)phenylcarbamate derivatives” (SciFluor Life Sciences, Inc., priority 2012, dated 2017)
Where “and” joins values, the source holds several entries; their conditions need not be identical. Equal entries are not always repeated.

Target: T1, cloned KCNQ2/3 potassium channels (encoded by the human KCNQ2/3 gene and expressed in HEK293 cells) (Homo sapiens, UniProt O43525+O43526)
T1 construct: expressed in transfected cells; host or cells: HEK293 cells
Test: Assessment of KCNQ2/3 channel activation activity, QPatch HT automatic parallel patch clamp
Format: cell-based
Details: for Mean % KCNQ2/3 Activation: 5 min exposure, room temperature, HEK293 cells; for Individual Data Points (% Activation): single cell values; for KCNQ2/3 activation activity compared with ezogabine: single concentration (0.1 μM)
Protocol: The in vitro effects of ezogabine and Compound 1A on cloned KCNQ2/3 potassium channels (encoded by the human KCNQ2/3 gene and expressed in HEK293 cells) were evaluated at room temperature using the QPatch HT® (Sophion Bioscience A/S, Denmark), an automatic parallel patch clamp system. Each test article was evaluated at 0.01, 0.1, 1, 10 and 100 μM with each concentration tested in at least two cells (n≧2). The duration of exposure to each test article concentration was 5 minutes.
The baseline for each recording was established using a 5-10 minute vehicle application (HBPS+0.3% DMSO). A single test article concentration was applied for a period of 5 minutes after the vehicle, followed by a 3 minute application of 30 μM flupirtine. Each recording ended with a supramaximal dose of 30 μM linopirdine. The % activation was calculated using the following equation by using leak subtracted responses: […]

SMILES	Mean % KCNQ2/3 Activation (0.01 μM)	Mean % KCNQ2/3 Activation (0.1 μM)	Mean % KCNQ2/3 Activation (1 μM)	Mean % KCNQ2/3 Activation (10 μM)	Mean % KCNQ2/3 Activation (100 μM)	KCNQ2/3 activation activity compared with ezogabine	also measured
CCOC(=O)Nc1ccc(NCc2ccc(F)cc2)c(F)c1N [Compound 1A, ethyl(2-amino-3-fluoro-4-((4-fluorobenzyl)amino)phenyl)carbamate]	31.4%	62.9%	125.5%	119.9%	61.9%		Individual Data Points (% Activation) (0.01 μM, listed as Compound lA): 35.9% and 26.9%; Individual Data Points (% Activation) (0.1 μM, listed as Compound lA): 98.9% and 43.3% and 46.6%; Individual Data Points (% Activation) (1 μM, listed as Compound lA): 123.5% and 127.6%; Individual Data Points (% Activation) (10 μM, listed as Compound lA): 119.7% and 120.1%; Individual Data Points (% Activation) (100 μM, listed as Compound lA): 56.6% and 67.3%
CCOC(=O)Nc1c(N)cc(NCc2ccc(F)cc2)cc1F [Compound 2A, ethyl(2-amino-6-fluoro-4-((4-fluorobenzyl)amino)phenyl)carbamate]						equivalent in activity to ezogabine	
CCOC(=O)Nc1cc(F)c(NCc2ccc(F)cc2)cc1N [Compound 3A, ethyl(2-amino-5-fluoro-4-((4-fluorobenzyl)amino)phenyl)carbamate]						equivalent in activity to ezogabine	
CCOC(=O)Nc1cc(F)c(NCc2ccc(F)cc2)c(F)c1N [Compound 4A, ethyl(2-amino-3,5-difluoro-4-((4-fluorobenzyl)amino)phenyl)carbamate]						equivalent in activity to ezogabine	
CCOC(=O)Nc1ccc(NCc2ccc(F)cc2)cc1N [ezogabine, ethyl N-[2-amino-4-[(4-fluorophenyl)methylamino]phenyl]carbamate, reference compound]	6.6%	40.6%	94.4%	132.0%	104.1%		Individual Data Points (% Activation) (0.01 μM): 2.1% and 11.1%; Individual Data Points (% Activation) (0.1 μM): 49.1% and 32.2%; Individual Data Points (% Activation) (1 μM): 93.6% and 95.2%; Individual Data Points (% Activation) (10 μM): 123.7% and 140.4%; Individual Data Points (% Activation) (100 μM): 93.8% and 101.9% and 116.5%
